Assay results published in patent US20160101188A1, “NOVEL NANOCARRIER DELIVERED CANCER CHEMOTHERAPEUTIC AGENTS” (UNIVERSITY OF CINCINNATI, priority 2013, published 2016).
Like-named read-outs stand apart in the source and are kept apart here.

System: MCF7 (breast cancer) cells
Experiment: MTT cytotoxicity assay in MCF7 breast cancer cells
Type: cell-based
Conditions: 65 hours incubation, read-out: IC50, viability of MCF7 cells from the MTT assay
Description: The cyctoxicity of compounds was determined in MCF 7 (breast cancer) cells.
MCF7 cells were grown in RPMI 1640 media with 10 nM estrogen and 1 mM insulin. Cells were tyripsinized and resuspended at a density of 2.2×10^4 cells per mL. 500 μL of this suspension was added to each well in a 24 well plate. The plates were incubated at 37° C. and 5% CO2 atmosphere overnight. The media was changed, and plates were dosed in triplicate with compound dissolved in DMSO. Cells were dosed not to exceed 0.5% DMSO in solution. Cells were dosed to a final concentration of 100, 50, 25, 12.5, and 6.25 μM of compound. 5-Flurouracil was used as a positive control and dosed in the same manner. Plates were incubated for 65 hours prior to the addition of MTT solution. 500 μL of a 193 μg/mL MTT and media solution was added to each well. Plates were incubated for 3 hours. The MTT solution was removed and 500 μL of DMSO was added to each well. Cells were imaged using GS 800 Bio Rad scanner and Quality One Software. IC50 curves were determined by plotting viability verses compound concentration. Kaleidagraph software was used to calculate the R value for each logarithmic curve fitting.

Row | Structure (SMILES) | IC50 (Homo sapiens, MCF7, 65 h) | IC50
1 | CC(C)COC(c1ccccc1)c1cn([C@H]2C[C@H](O)[C@@H](CO)O2)c(=O)[nH]c1=O (stereo partly drawn) [MPB-1-25, 5-[1-(phenyl)-2-(methyl)-1-propoxymethyl]-2′-deoxyuridine] | > 150 µM | –
2 | COc1ccccc1C(OCc1cn([C@H]2C[C@H](O)[C@@H](CO)O2)c(=O)[nH]c1=O)C(C)(C)C (stereo partly drawn) [MPB-1-36, 5-[1-(2-methoxyphenyl)-2,2-(dimethyl)propoxymethyl]-2′-deoxyuridine] | – | 94 µM
3 | O=c1[nH]c(=O)n([C@H]2C[C@H](O)[C@@H](CO)O2)cc1COC(c1ccccc1)C1CCCCC1 (stereo partly drawn) [PRW-1-13, 5-[1-(phenyl)-1-(cyclohexyl)methoxymethyl]-2′-deoxyundine] | – | 93 µM
4 | CC(C)(C)CC(OCc1cn([C@H]2C[C@H](O)[C@@H](CO)O2)c(=O)[nH]c1=O)c1ccccc1[N+](=O)[O-] (stereo partly drawn) [KB-1-91, 5-[1-(2-nitrophenyl)-3,3-(dimethyl)butoxymethyl]-2′-deoxyuridine] | – | 62 µM
5 | CC(C)(C)C(OCc1cn([C@H]2C[C@H](O)[C@@H](CO)O2)c(=O)[nH]c1=O)c1ccccc1C#N (stereo partly drawn) [VAL-1-28, 5-[1-(2-cyanophenyl)-2,2-(dimethyl)propoxymethyl]-2′-deoxyuridine] | – | 106 µM
6 | COc1ccc(C(OCc2cn([C@H]3C[C@H](O)[C@@H](CO)O3)c(=O)[nH]c2=O)C(C)(C)C)cc1 (stereo partly drawn) [KB-1-55, 5-[1-(4-methoxyphenyl)-2,2-(dimethyl)propoxymethyl]-2′-deoxyuridine] | – | 183 µM
7 | COCC#Cc1ccc(C(OCc2cn([C@H]3C[C@H](O)[C@@H](CO)O3)c(=O)[nH]c2=O)C(C)(C)C)c([N+](=O)[O-])c1 (stereo partly drawn) [VAL-1-48, 5-[1-(4-{3-methoxy}proyn-1yl-2-nitrophenyl)-2,2-(dimethyl)-1-propoxymethyl]-2′-deoxyuridine] | – | 74 ± 7 µM
8 | O=c1[nH]c(=O)n([C@H]2C[C@H](O)[C@@H](CO)O2)cc1COC(c1ccccc1)c1ccccc1[N+](=O)[O-] (stereo partly drawn) [KB-1-85, 5-[{(2-nitrophenyl)phenyl}methoxymethyl]-2′-deoxyundine] | – | 50 µM
9 | CC(OCc1cn([C@H]2C[C@H](O)[C@@H](CO)O2)c(=O)[nH]c1=O)c1ccccc1[N+](=O)[O-] (stereo partly drawn) [VAL-1-26, 5-[1-(2-nitrophenyl)ethoxymethyl]-2′-deoxyuridine] | – | ~150 µM
10 | COc1cccc(C(OCc2cn([C@H]3C[C@H](O)[C@@H](CO)O3)c(=O)[nH]c2=O)C(C)(C)C)c1 (stereo partly drawn) [SS-1-11, 5-[1-(3-methoxyphenyl)-2,2-(dimethyl)propoxymethyl]-2′-deoxyundine] | – | 66 µM
11 | CC(OCc1cn([C@H]2C[C@H](O)[C@@H](CO)O2)c(=O)[nH]c1=O)c1ccccc1[N+](=O)[O-] (stereo partly drawn) [VAL-1-25, 5-[1-(2-nitrophenyl)ethoxymethyl]-2′-deoxyuridine] | ~170 µM | –
12 | Cc1ccccc1C(OCc1cn([C@H]2C[C@H](O)[C@@H](CO)O2)c(=O)[nH]c1=O)C(C)(C)C (stereo partly drawn) [KB-1-100, 5-[1-(2-methyl)phenyl-2,2-(dimethyl)propoxymethyl]-2′-deoxyuridine] | – | 121 µM
13 | CC(C)(C)C(OCc1c[nH]c(=O)[nH]c1=O)c1ccccc1 (stereo not drawn) [KB-1-23, 5-[1-phenyl-2,2-(dimethyl)propoxymethyl]uracil] | – | 59 µM
14 | CC(C)(C)C(OCc1cn([C@H]2C[C@H](O)[C@@H](CO)O2)c(=O)[nH]c1=O)c1ccc(C#C[Si](C)(C)C)cc1[N+](=O)[O-] (stereo partly drawn) [VAL-1-49, 5-[1-(4-{trimethylsilyl}acetylenyl-2-nitrophenyl)-2,2-(dimethyl)-1-propoxymethyl]-2′-deoxyuridine] | – | 29 ± 3 µM
15 | CC(C)(C)C(OCc1cn([C@H]2C[C@H](O)[C@@H](CO)O2)c(=O)[nH]c1=O)c1c([N+](=O)[O-])cccc1[N+](=O)[O-] (stereo partly drawn) [MPB-1-55, 5-[1-(2,6-dinitrophenyl)-2,2-(dimethyl)propoxymethyl]-2′-deoxyuridine] | – | 96 µM
16 | CC(OCc1cn([C@H]2C[C@H](O)[C@@H](CO)O2)c(=O)[nH]c1=O)c1ccccc1 (stereo partly drawn) [VAL-1-10, 5-[1-(phenyl)ethoxymethyl]-2′-deoxyuridine] | > 200 µM | –
17 | CC(C)(C)C(OCc1cn([C@H]2C[C@H](O)[C@@H](CO)O2)c(=O)[nH]c1=O)c1c(Cl)cccc1Cl (stereo partly drawn) [MPB-1-57, 5-[1-(2,6-dichlorophenyl)-2,2-(dimethyl)propoxymethyl]-2′-deoxyuridine] | – | 60 µM
18 | CC(C)(C)C(OCc1cn([C@H]2C[C@H](O)[C@@H](CO)O2)c(=O)[nH]c1=O)c1ccccc1Cl (stereo partly drawn) [MPB-1-49, 5-[1-(2-chlorophenyl)-2,2-(dimethyl)propoxymethyl]-2′-deoxyundine] | – | 80 µM
19 | O=c1[nH]c(=O)n([C@H]2C[C@H](O)[C@@H](CO)O2)cc1COC(c1ccccc1)c1c([N+](=O)[O-])cccc1[N+](=O)[O-] (stereo partly drawn) [TZ-1-13F3, 5-[{(2,6-dinitrophenyl)phenyl}methoxymethyl]-2′-deoxyuridine] | – | 44 µM
20 | CC(C)(C)C(OCc1cn([C@H]2C[C@H](O)[C@@H](CO)O2)c(=O)[nH]c1=O)c1ccc(C#CCOc2ccc3ccc(=O)oc3c2)cc1[N+](=O)[O-] (stereo partly drawn) [MPB-1-41, 5-[1-(4-{3-(7-coumarin)oxy}proyn-1-yl-2-nitrophenyl)-2,2-(dimethyl)propoxymethyl]-2′-deoxyuridine] | – | 16 ± 3 µM
21 | CC(C)C(OCc1c[nH]c(=O)[nH]c1=O)c1ccccc1 (stereo not drawn) [KB-1-1, 5-[1-phenyl-2-(methyl)propoxymethyl]uracil] | > 200 µM | –
22 | O=c1[nH]c(=O)n([C@H]2C[C@H](O)[C@@H](CO)O2)cc1COC(c1ccccc1[N+](=O)[O-])C1CCCCC1 (stereo partly drawn) [PRW-1-18, 5-[1-(2-nitro)phenyl-1-(cyclohexyl)methoxymethyl]-2′-deoxyuridine] | – | 63 µM
23 | CC(C)(C)C(OCc1cn([C@H]2C[C@H](O)[C@@H](CO)O2)c(=O)[nH]c1=O)c1ccccc1CBr (stereo partly drawn) [KB-1-135, 5-[1-(2-bromomethyl)phenyl-2,2-(dimethyl)propoxymethyl]-2′-deoxyuridine] | – | 72 µM
24 | O=c1[nH]c(=O)n([C@H]2C[C@H](O)[C@@H](CO)O2)cc1COC(c1ccccc1)c1ccccc1 [KB-1-10, 5-[(diphenyl)methoxymethyl]-2′-deoxyuridine] | 160 µM | –
25 | C#Cc1ccc(C(OCc2cn([C@H]3C[C@H](O)[C@@H](CO)O3)c(=O)[nH]c2=O)C(C)(C)C)c([N+](=O)[O-])c1 (stereo partly drawn) [VAL-1-50, 5-[1-(4-acetylenyl-2-nitrophenyl)-2,2-(dimethyl)propoxymethyl]-2′-deoxyuridine] | – | 89 ± 14 µM
26 | CC(C)(C)CC(OCc1c[nH]c(=O)[nH]c1=O)c1ccccc1 (stereo not drawn) [SL-1-7, 5-[1-phenyl-3,3-(dimethyl)butoxymethyl]uracil] | – | 37 µM
27 | CC(C)(C)C(OCc1cn([C@H]2C[C@H](O)[C@@H](CO)O2)c(=O)[nH]c1=O)c1ccc(I)cc1[N+](=O)[O-] (stereo partly drawn) [MPB-1-33, 5-[1-(4-iodo-2-nitrophenyl)-2,2-(dimethyl)propoxymethyl]-2′-deoxyuridine] | – | 56 ± 6 µM
